According to patent US8389532B2, “7-[2-[4-(6-fluoro-3-methyl-1,2-benzisoxazol-5-yl)-1-piperazinyl]ethyl]-2-(1-propynyl)-7H-pyrazolo-[4,3-E]-[1,2,4]-triazolo-[1,5-C]-pyrimidin-5-amine” (Merck Sharp & Dohme Corp., priority 2005, dated 2013):

Tests used:
[1] = biological target: T1, A2a receptor (Rattus norvegicus, UniProt P30543); assay: Ex vivo binding study to show duration of receptor occupancy (striatal homogenate, 3H-SCH 58261); assay type: in vivo; settings: rats dosed 1 mg/kg; for receptor occupancy at 1 mg/kg: rat, 4 hours prior to sacrifice, read-out: decrease in 3H-SCH 58261 binding (receptor occupancy)
T1 construct: The A2a receptor-rich striatal nucleus was dissected and homogenized in buffer solution; from tissue; host or cells: rat striatum homogenate
T1 sequence (P30543 whole entry): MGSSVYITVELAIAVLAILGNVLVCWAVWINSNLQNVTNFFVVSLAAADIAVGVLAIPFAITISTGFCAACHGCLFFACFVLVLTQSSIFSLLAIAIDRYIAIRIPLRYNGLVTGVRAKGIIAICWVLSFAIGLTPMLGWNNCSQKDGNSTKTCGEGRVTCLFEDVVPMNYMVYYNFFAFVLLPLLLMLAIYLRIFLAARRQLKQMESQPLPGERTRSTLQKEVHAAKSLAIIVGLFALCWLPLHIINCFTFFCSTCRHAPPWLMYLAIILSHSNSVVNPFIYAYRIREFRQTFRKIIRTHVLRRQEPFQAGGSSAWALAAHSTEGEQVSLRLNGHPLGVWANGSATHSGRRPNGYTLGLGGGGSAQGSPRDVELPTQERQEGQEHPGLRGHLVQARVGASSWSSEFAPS
Experimental: Ex Vivo Binding Study to Show Duration of Receptor Occupancy:
Rats were dosed with 1 mg/kg of the compound of formula I and the compound of formula II (generically disclosed in U.S. Pat. No. 6,897,217)
[drawing 4] for 4, 8, 12, and 16 hours prior to sacrifice and removal of brains. The A2a receptor-rich striatal nucleus was dissected and homogenized in buffer solution. Striatal homogenate was incubated with the A2a antagonist radioligand ^3H-SCH 58261 (see WO 96/38728) prior to separation of bound and free radioactivity by filtration. Bound radioligand on filters was dried, soaked with scintillation fluid, and counted. Homogenates from striata of vehicle-treated rats treated with the same experimental conditions defined the quantity of bound radioligand in the absence of test compound.

[2] = system: haloperidol-induced catalepsy; assay: Haloperidol-induced catalepsy in the rat; assay type: in vivo; settings: @ 4 h, rats
Experimental: Haloperidol-Induced Catalepsy in the Rat Male Sprague-Dawley rats (Charles River, Calco, Italy) weighing 175-200 g are used. The cataleptic state is induced by the subcutaneous administration of the dopamine receptor antagonist haloperidol (1 mg/kg, sc), 90 min before testing the animals on the vertical grid test. For this test, the rats are placed on the wire mesh cover of a 25×43 plexiglass cage placed at an angle of about 70 degrees with the bench table. The rat is placed on the grid with all four legs abducted and extended (“frog posture”). The use of such an unnatural posture is essential for the specificity of this test for catalepsy. The time span from placement of the paws until the first complete removal of one paw (descent latency) is measured maximally for 120 sec. The selective A2A adenosine antagonists under evaluation are administered orally at doses ranging between 0.03 and 3 mg/kg, 1 and 4 h before scoring the animals.

[3] = system: 6-OHDA lesioned rats; assay: 6-OHDA lesion of the middle forebrain bundle in rats (contralateral turning with subthreshold L-DOPA); assay type: in vivo, rat; settings: combined with sub-threshold L-DOPA
Experimental: 6-OHDA Lesion of the Middle Forebrain Bundle in Rats
Adult male Sprague-Dowley rats (Charles River, Calco, Como, Italy), weighing 275-300 g, are used in all experiments. The rats are housed in groups of 4 per cage, with free access to food and water, under controlled temperature and 12 hour light/dark cycle. The day before the surgery the rats are fasted over night with water ad libitum.
Unilateral 6-hydroxydopamine (6-OHDA) lesion of the middle forebrain bundle is performed according to the method described by Ungerstedt et al. (Brain Research, 1971, 6-OHDA and Cathecolamine Neurons, North Holland, Amsterdam, 101-127), with minor changes. Briefly, the animals are anaesthetized with chloral hydrate (400 mg/kg, ip) and treated with desipramine (10 mpk, ip) 30 min prior to 6-OHDA injection in order to block the uptake of the toxin by the noradrenergic terminals. Then, the animals are placed in a stereotaxic frame. The skin over the skull is reflected and the stereotaxic coordinates (−2.2 posterior from bregma (AP), +1.5 lateral from bregma (ML), 7.8 ventral from dura (DV) are taken, according to the atlas of Pellegrino et al (Pellegrino L. J., Pellegrino A. S. and Cushman A. J., A Stereotaxic Atlas of the Rat Brain, 1979, New York: Plenum Press). A burr hole is then placed in the skull over the lesion site and a needle, attached to a Hamilton syringe, is lowered into the left MFB. Then 8 μg 6-OHDA-HCl is dissolved in 4 μl of saline with 0.05% ascorbic acid as antioxidant, and infused at the constant flow rate of 1 μl/1 min using an infusion pump. The needle is withdrawn after additional 5 min and the surgical wound is closed and the animals left to recover for 2 weeks.
Any rat not showing at least 200 complete turns/2 h is not included in the study.
Selected rats receive the test drug 3 days after the priming test (maximal dopamine receptor supersensitivity).

[4] = biological target: T2, A1 receptor (Homo sapiens, UniProt P30542); assay: Human adenosine A1 receptor competition binding assay (selectivity vs A2a); settings: A1 ligand [3H]-DPCPX
T2 sequence (P30542 1-326): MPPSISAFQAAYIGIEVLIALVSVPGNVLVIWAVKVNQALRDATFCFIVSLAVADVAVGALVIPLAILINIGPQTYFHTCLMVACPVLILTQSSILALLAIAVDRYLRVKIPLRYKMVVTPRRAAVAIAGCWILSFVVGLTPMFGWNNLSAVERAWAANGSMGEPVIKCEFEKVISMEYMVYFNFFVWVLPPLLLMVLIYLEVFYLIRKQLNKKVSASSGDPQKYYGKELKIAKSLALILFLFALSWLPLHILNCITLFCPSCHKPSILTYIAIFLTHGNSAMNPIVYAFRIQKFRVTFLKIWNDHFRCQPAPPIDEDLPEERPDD
Experimental: (§1) Human Adenosine A2a and A1 Receptor Competition Binding Assay Protocol
(§2) Membrane dilution buffer: Dulbecco's Phosphate Buffered Saline (Gibco/BRL)+10 mM MgCl2.
(§3) Compound Dilution Buffer: Dulbecco's Phosphate Buffered Saline (Gibco/BRL)+10 mM MgCl2 supplemented with 1.6 mg/ml methyl cellulose and 16% DMSO. Prepared fresh daily.
A1: [3H]-DPCPX, AmershamPharmacia Biotech, Piscataway, N.J. Stock is prepared at 2 nM in membrane dilution buffer. Final assay concentration is 1 nM.
A1: To determine non-specific binding, add 100 μM NECA (RBI, Natick, Mass.). Working stock is prepared at 400 μM in compound dilution buffer.
(§4) Prepare 1 mM stock solutions of compounds in 100% DMSO. Dilute in compound dilution buffer. Test at 10 concentrations ranging from 3 μM to 30 pM. Prepare working solutions at 4× final concentration in compound dilution buffer.
(§5) Perform assays in deep well 96 well plates. Total assay volume is 200 μl. Add 50 μl compound dilution buffer (total ligand binding) or 50 μl CGS 15923 working solution (A2a non-specific binding) or 50 μl NECA working solution (A1 non-specific binding) or 50 μl of drug working solution. Add 50 μl ligand stock ([3H]-SCH 58261 for A2a, [3H]-DPCPX for A1). Add 100 μl of diluted membranes containing the appropriate receptor. Mix. Incubate at room temperature for 90 minutes. […]
Selectivity is determined by dividing Ki for A1 receptor by Ki for A2a receptor. […]

[5] = system: haloperidol-induced EPS; assay: EPS assay in haloperidol-sensitized Cebus apella monkeys; assay type: in vivo; settings: 30 mg/kg co-administered with haloperidol 0.3 mg/kg
Experimental: A test compound is administered orally (p.o.) at a dose ranging from 0.3-30 mg/kg, in conjunction with haloperidol. The studies are conducted using a within-subjects design such that each monkey receives all treatments (vehicle and doses of test compound) in a crossover, balanced design. The reduction in the maximum EPS score, as well as the dose-dependent delay in the onset of EPS are determined. In the EPS assay, four haloperidol-sensitized monkeys were co-administered the compound of formula I (30 mg/kg) and haloperidol (0.3 mg/kg) in a banana. A scoring system to rate the severity of each symptom was employed over a 6 hour observation period.

[6] = biological target: T3, Human A2a Adenosine Receptor (Homo sapiens, UniProt P29274); assay: Human adenosine A2a receptor competition binding assay; settings: [3H]-SCH 58261 0.5 nM, human A2a membranes
T3 construct: purchased Perkin Elmer Life Sciences RBHA2AM
T3 sequence (P29274 whole entry): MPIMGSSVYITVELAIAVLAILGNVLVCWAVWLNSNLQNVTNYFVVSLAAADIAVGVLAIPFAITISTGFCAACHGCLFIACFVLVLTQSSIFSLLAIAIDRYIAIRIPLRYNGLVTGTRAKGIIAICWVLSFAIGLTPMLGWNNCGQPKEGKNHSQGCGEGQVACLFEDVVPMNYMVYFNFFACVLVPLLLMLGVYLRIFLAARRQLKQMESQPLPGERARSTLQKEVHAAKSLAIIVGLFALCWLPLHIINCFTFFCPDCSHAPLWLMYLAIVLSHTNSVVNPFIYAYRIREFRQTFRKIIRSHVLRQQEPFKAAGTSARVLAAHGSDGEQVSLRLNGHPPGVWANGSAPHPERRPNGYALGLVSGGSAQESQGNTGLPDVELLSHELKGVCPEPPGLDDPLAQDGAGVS
Experimental: as §1
A2a: Human A2a Adenosine Receptor membranes, Catalog #RBHA2AM, Perkin Elmer Life Sciences, Shelton Conn. Dilute to 17 μg/100 μl in membrane dilution buffer (see below).
as §2, §3
A2a: [3H]-SCH 58261, custom synthesis, AmershamPharmacia Biotech, Piscataway, N.J. Stock is prepared at 1 nM in membrane dilution buffer. Final assay concentration is 0.5 nM.
A2a: To determine non-specific binding, add 100 nM CGS 15923 (RBI, Natick, Mass.). Working stock is prepared at 400 nM in compound dilution buffer.
as §4
as §5, with “A1).” for “A1). Add 100 μl of diluted membranes containing the appropriate receptor. Mix. Incubate at room temperature for 90 minutes.”

Row | Structure (SMILES) | receptor occupancy at 1 mg/kg [1] | displacement of radiolabel (3H-SCH 58261) ([1]; 12 hours) | inhibition of catalepsy ([2]; 0.3 mpk orally) | inhibition of catalepsy ([2]; 1 mpk orally) | inhibition of catalepsy ([2]; 3 mpk orally) | contralateral turning ([3]; 0.1 mpk orally) | contralateral turning ([3]; 0.3 mpk orally) | contralateral turning ([3]; 1 mpk orally) | contralateral turning ([3]; 3 mpk orally) | Selectivity (Ki for A1 receptor divided by Ki for A2a receptor) [4] | effect on haloperidol-induced EPS, three of four subjects ([5]; 6 hr observation period) | effect on haloperidol-induced EPS, fourth subject ([5]; compared with haloperidol alone) | Ki [6] | 3H-SCH 58261 radioligand binding (receptor occupancy) ([1]; 8 hours)
1 | CC#Cc1nc2c3cnn(CCN4CCN(c5cc6c(C)noc6cc5F)CC4)c3nc(N)n2n1 [compound of formula I, 7-[2-[4-(6-fluoro-3-methyl-1,2-benzisoxazol-5-yl)-1-piperazinyl]ethyl]-2-(1-propynyl)-7H-pyrazolo-[4,3-e]-[1,2,4]-triazolo[1,5-c]pyrimidin-5-amine] | 42% | 40% | 28% | 47% | 53% | 218±142 rotations | 406±167 rotations | 360±178 rotations | 403±125 rotations | greater than 2500 fold | completely blocked haloperidol-induced EPS | delayed onset and reduced severity of EPS | 0.43 nM | 
2 | CC#Cc1nc2c3cnn(CCN4CCN(c5cc(-c6noc(C)n6)ccc5F)CC4)c3nc(N)n2n1 [formula II, reference compound] | 47% |  |  |  |  |  |  |  |  |  |  |  |  | restored to near vehicle-treated levels
